Assay results taken from PubChem BioAssay AID1259411 (Chemical Carcinogenesis Research Information System (CCRIS), 2018).
Calls of active or inactive are those of the source. How the calls were made is not given here.

Test system: rodent carcinogenicity bioassays, tumor incidence
Assay: CCRIS carcinogenicity studies
Outline: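 Archive of carcinogenicity, mutagenicity, tumor promotion and tumor inhibition results drawn from journals, NCI reports and other sources, expert-reviewed; covers 1985-2011 and is no longer updated.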

## CN1[C@@H]2CC(OC(=O)[C@H](CO)c3ccccc3)C[C@H]1[C@@H]1O[C@@H]12 (some centres not stated)
Species: MOUSE, Strain/Sex: B6C3F1/FEMALE, Route: GAVAGE, Dose: 0, 1, 5, 25 MG/KG IN DISTILLED WATER FOR 104-105 WK (STUDY DURATION: 105 WK), Dose: 0, 1, 5, 25 MG/KG IN DISTILLED WATER FOR 104-105 WK (STUDY DURATION: 105 WK)
  carcinogen call: inactive; negative
Species: MOUSE, Strain/Sex: B6C3F1/FEMALE, Route: GAVAGE, Dose: 0, 25 MG/KG IN WATER 5 D/WK FOR 104 WK, CONTROL AND DOSED GROUPS FED AD LIBITUM (STUDY DURATION: 104 WK)
  carcinogen call: inactive; negative
Species: MOUSE, Strain/Sex: B6C3F1/FEMALE, Route: GAVAGE, Dose: 0, 25 MG/KG IN WATER 5 D/WK FOR 104 WK, CONTROL GROUP DIET RESTRICTED TO LIMIT WEIGHTS TO 85% OF AD LIBITUM-FED GROUP (S
  carcinogen call: inactive; negative
Species: MOUSE, Strain/Sex: B6C3F1/FEMALE, Route: GAVAGE, Dose: 0, 25 MG/KG IN WATER 5 D/WK FOR 104 WK, CONTROL GROUP WAS WEIGHT-MATCHED TO DOSED GROUP (STUDY DURATION: 104 WK)
  carcinogen call: inactive; negative
Species: MOUSE, Strain/Sex: B6C3F1/FEMALE, Route: GAVAGE, Dose: 0, 25 MG/KG IN WATER 5 D/WK FOR 157 WK, CONTROL GROUP DIET RESTRICTED TO LIMIT WEIGHTS TO 85% OF AD LIBITUM-FED GROUPS (
  carcinogen call: inactive; negative
Species: MOUSE, Strain/Sex: B6C3F1/MALE, Route: GAVAGE, Dose: 0, 1, 5, 25 MG/KG IN DISTILLED WATER FOR 104-105 WK (STUDY DURATION: 105 WK), Dose: 0, 1, 5, 25 MG/KG IN DISTILLED WATER FOR 104-105 WK (STUDY DURATION: 105 WK)
  carcinogen call: inactive; negative
Species: MOUSE, Strain/Sex: B6C3F1/MALE, Route: GAVAGE, Dose: 0, 25 MG/KG IN WATER 5 D/WK FOR 104 WK, CONTROL AND DOSED GROUPS FED AD LIBITUM (STUDY DURATION: 104 WK)
  carcinogen call: inactive; negative
Species: MOUSE, Strain/Sex: B6C3F1/MALE, Route: GAVAGE, Dose: 0, 25 MG/KG IN WATER 5 D/WK FOR 104 WK, CONTROL GROUP DIET RESTRICTED TO LIMIT WEIGHTS TO 85% OF AD LIBITUM FED GROUP (S
  carcinogen call: inactive; negative
Species: MOUSE, Strain/Sex: B6C3F1/MALE, Route: GAVAGE, Dose: 0, 25 MG/KG IN WATER 5 D/WK FOR 104 WK, CONTROL GROUP WAS WEIGHT-MATCHED TO DOSED GROUP (STUDY DURATION: 104 WK)
  carcinogen call: inactive; negative
Species: MOUSE, Strain/Sex: B6C3F1/MALE, Route: GAVAGE, Dose: 0, 25 MG/KG IN WATER 5 D/WK FOR 157 WK, CONTROL GROUP DIET RESTRICTED TO LIMIT WEIGHTS TO 85% OF AD LIBITUM-FED GROUPS (
  carcinogen call: inactive; negative
Species: RAT, Strain/Sex: F344/FEMALE, Route: GAVAGE, Dose: 1, 5, 25 MG/KG IN DISTILLED WATER FOR 104 WK (STUDY DURATION: 104 WK), Dose: 1, 5, 25 MG/KG IN DISTILLED WATER FOR 104 WK (STUDY DURATION: 104 WK)
  carcinogen call: inactive; negative
Species: RAT, Strain/Sex: F344/MALE, Route: GAVAGE, Dose: 0, 1, 5, 25 MG/KG IN DISTILLED WATER FOR 104 WK (STUDY DURATION: 104 WK), Dose: 0, 1, 5, 25 MG/KG IN DISTILLED WATER FOR 104 WK (STUDY DURATION: 104 WK)
  carcinogen call: inactive; negative

## CCS(=O)(=O)c1ccc(S(N)(=O)=O)c2ccccc12
Species: MOUSE, Strain/Sex: A X 1F/FEMALE, Route: ORAL, Dose: 0, 0.01% IN POWDERED OXOID DIET (STUDY DURATION: 333-701 D), Tumor Site: Type of Lesion: BLADDER: CARCINOMA, LUNG: ADENOMA
  carcinogen call: active; positive
Species: MOUSE, Strain/Sex: A X 1F/FEMALE, Route: ORAL, Dose: 0, 0.01% IN POWDERED OXOID DIET PRECEDED BY IRRADIATION OF 1000 RAD WITH UPPER BODY SHIELDED 48H PRIOR TO DOSING (STUDY, Tumor Site: Type of Lesion: BLADDER: CARCINOMA, LUNG: ADENOMA
  carcinogen call: active; positive

## O[C@@H]1[C@@H]2O[C@@H]2c2c(ccc3cc4ccc5ccccc5c4nc23)[C@H]1O
Species: MOUSE, Strain/Sex: CD-1/FEMALE, Route: INTRAPERITONEAL, Dose: 0, 28 NMOL (TOTAL DOSE) ADMINISTERED AS 1/7 OF DOSE WITHIN 24 HR AFTER BIRTH, 2/7 OF DOSE AT 8 D OLD, 4/7 OF DOSE AT 15, Tumor Site: Type of Lesion: LUNG: TUMOR
  carcinogen call: active; positive
Species: MOUSE, Strain/Sex: CD-1/FEMALE, Route: INTRAPERITONEAL, Dose: 0, 70, 175 NMOL (TOTAL DOSE) ADMINISTERED AS 1/7 OF DOSE WITHIN 24 HR AFTER BIRTH, 2/7 OF DOSE AT 8 D OLD, 4/7 OF DOSE A, Dose: 0, 70, 175 NMOL (TOTAL DOSE) ADMINISTERED AS 1/7 OF DOSE WITHIN 24 HR AFTER BIRTH, 2/7 OF DOSE AT 8 D OLD, 4/7 OF DOSE A, Tumor Site: Type of Lesion: LIVER: TUMOR, LUNG: TUMOR
  carcinogen call: active; positive
Species: MOUSE, Strain/Sex: CD-1/MALE, Route: INTRAPERITONEAL, Dose: 0, 28 NMOL (TOTAL DOSE) ADMINISTERED AS 1/7 OF DOSE WITHIN 24 HR AFTER BIRTH, 2/7 OF DOSE AT 8 D OLD, 4/7 OF DOSE AT 15, Tumor Site: Type of Lesion: LIVER: TUMOR, LUNG: TUMOR
  carcinogen call: active; positive
Species: MOUSE, Strain/Sex: CD-1/MALE, Route: INTRAPERITONEAL, Dose: 0, 70, 175 NMOL (TOTAL DOSE) ADMINISTERED AS 1/7 OF DOSE WITHIN 24 HR AFTER BIRTH, 2/7 OF DOSE AT 8 D OLD, 4/7 OF DOSE A, Dose: 0, 70, 175 NMOL (TOTAL DOSE) ADMINISTERED AS 1/7 OF DOSE WITHIN 24 HR AFTER BIRTH, 2/7 OF DOSE AT 8 D OLD, 4/7 OF DOSE A, Tumor Site: Type of Lesion: LIVER: TUMOR, LUNG: TUMOR
  carcinogen call: active; positive

## Cc1cccc(OCC(O)CNC(C)(C)C)c1[N+](=O)[O-] (configuration not stated)
Species: RAT, Strain/Sex: WISTAR/FEMALE, Route: ORAL, Dose: 0, 25, 50, 100 MG/KG DAILY BY GAVAGE FOR 3 OR 6 MO, Dose: 0, 25, 50, 100 MG/KG DAILY BY GAVAGE FOR 3 OR 6 MO, Tumor Site: Type of Lesion: LIVER: NEOPLASTIC NODULE, HEPATOCELLULAR CARCINOMA
  carcinogen call: active; positive

## [Cd]
Species: HUMAN, Route: INHALATION, ORAL, DERMAL, Tumor Site: Type of Lesion: PROSTATE GLAND
  carcinogen call: active; positive
Species: RAT, Strain/Sex: F344/MALE,FEMALE, Route: INTRAMUSCULAR, Dose: 5 MG GIVEN IN 2 INJECTIONS AT MONTHLY INTERVALS (STUDY DURATION: 12 MO), Tumor Site: Type of Lesion: INJECTION SITE: FIBROSARCOMA
  carcinogen call: active; positive
Species: RAT, Strain/Sex: LONG-EVANS/FEMALE, Route: INTRAMUSCULAR, Dose: 14, 28 MG, Tumor Site: Type of Lesion: INJECTION SITE: RHABDOMYOSARCOMA, FIBROSARCOMA
  carcinogen call: active; positive

## N#Cc1cc(Br)c(O)c(Br)c1
Species: Mouse, Strain/Sex: Crl:CD-1 (ICR)BR VAF/Plus/Female (60/sex/group), Route: Oral, Dose: 0, 20, 75, 300 ppm in feed for 78-80 wk, Dose: 0, 20, 75, 300 ppm in feed for 78-80 wk, Tumor Site: Type of Lesion: Liver: Hepatocellular adenoma and carcinoma combined (0 ppm, 2/60; 300 ppm, 7/59)
  carcinogen call: active; positive at high dose only; purity 94.4%
Species: Mouse, Strain/Sex: Crl:CD-1 (ICR)BR VAF/Plus/Male (60/sex/group), Route: Oral, Dose: 0, 20, 75, 300 ppm in feed for 78-80 wk, Dose: 0, 20, 75, 300 ppm in feed for 78-80 wk, Tumor Site: Type of Lesion: Liver: Hepatocellular adenoma and carcinoma combined (5/60; 16/60; 12/60; 23/60)
  carcinogen call: active; positive; purity 94.4%

## C[C@]12CC[C@H]3[C@@H](CCC4=CC(=O)CC[C@@]43C)[C@@H]1CC[C@@H]2O
Species: MOUSE, Route: SUBCUTANEOUS IMPLANT, Tumor Site: Type of Lesion: MAMMARY GLAND, VAGINA
  carcinogen call: active; positive
Species: MOUSE, Route: SUBCUTANEOUS, Tumor Site: Type of Lesion: GENITAL TRACT
  carcinogen call: active; positive

## Cc1ccc(O)c(O)c1
Species: RAT, Strain/Sex: F344/FEMALE, Route: ORAL, Dose: 0, 2% IN DIET FOR 104 WK (STUDY DURATION: 104 WK), Tumor Site: Type of Lesion: FORESTOMACH: PAPILLOMA, SQUAMOUS CELL CARCINOMA, GLANDULAR STOMACH: ADENOMA, ADENOCARCINOMA
  carcinogen call: active; positive
Species: RAT, Strain/Sex: F344/MALE, Route: ORAL, Dose: 0, 2% IN DIET FOR 104 WK (STUDY DURATION: 104 WK), Tumor Site: Type of Lesion: FORESTOMACH: PAPILLOMA, SQUAMOUS CELL CARCINOMA, GLANDULAR STOMACH: ADENOMA, ADENOCARCINOMA
  carcinogen call: active; positive

## N[C@@H](Cc1c[nH]c2ccccc12)C(=O)O
Species: MOUSE, Strain/Sex: B6C3F1/FEMALE, Route: ORAL, Dose: 0, 25000, 50000 PPM IN DIET, Dose: 0, 25000, 50000 PPM IN DIET
  carcinogen call: inactive; negative
Species: MOUSE, Strain/Sex: B6C3F1/MALE, Route: ORAL, Dose: 0, 25000, 50000 PPM IN DIET, Dose: 0, 25000, 50000 PPM IN DIET
  carcinogen call: inactive; negative
Species: RAT, Strain/Sex: F344/FEMALE, Route: ORAL, Dose: 0, 25000, 50000 PPM IN DIET, Dose: 0, 25000, 50000 PPM IN DIET
  carcinogen call: inactive; negative
Species: RAT, Strain/Sex: F344/MALE, Route: ORAL, Dose: 0, 25000, 50000 PPM IN DIET, Dose: 0, 25000, 50000 PPM IN DIET
  carcinogen call: inactive; negative
